Test results: US20110311990A1, “TETRANOR-PGEM/PGAM SPECIFIC IMMUNOGENS, ANTIBODIES, TRACERS, ASSAY KITS AND METHODS FOR MAKING SAME” (Cayman Chemical Company, Incorporated, priority 2010, published 2011)

Tests used:
[1] = humans; cited from earlier work
[2] = tested on: tetranor-PGEM EIA Antiserum; assay: Cross-reactivity testing of tetranor-PGEM antibody (polyclonal antiserum) by competitive EIA; type: binding, rabbit; conditions: for Cross-reactivity (% XR): Specificity of the tetranor-PGEM EIA Antiserum, Example 4 kit performance characteristics; for % XR: percent cross-reactivity = IC50 of tetranor-PGEM / IC50 of test compound x 100, Example 2, antiserum raised with tetranor-PGEM-KLH immunogen
Description: (§1) Rabbit immunizations were performed by Robert Sargeant Antibodies (655 Ash Street, Ramona, Calif. 92065) as follows: Male New Zealand White Rabbits 9-10 weeks of age, were immunized with Complete Freund's Adjuvant (CFA) initially, followed by Incomplete Freund's Adjuvant (IFA) for all subsequent injections. Immunogen 1 (200 μg; prepared in Step A, Procedure 1 of this Example; alternatively, Immunogen 1 A, which was prepared in Step A, Procedure 1A of this Example, has been used to produce antiserum according to this immunization method) was injected for the first immunization and 100 μg for boosts. The immunogen was diluted to one milliliter with sterile saline and combined with one milliliter of the appropriate adjuvant. The antigen and adjuvant were mixed thoroughly to form a stable emulsion which is injected subcutaneously. Blood was collected from the central ear artery and allowed to clot and retract. The serum was decanted and clarified by centrifugation before freezing.
(§2) Antisera (AS) from multiple bleeds from multiple rabbits were screened by titration on a 96-well microplate with detection of specific Ab based on its ability to bind the tetranor-PGEM-AChE conjugate (diluted 1:1000). The next screen consisted of a sensitivity screen selecting for AS with a suitable detection limit. The next screen excluded AS with unacceptably high cross-reactivity (experiment described below) with parent metabolites, tetranor-PGFM, and tetranor-PGDM. The final screen consisted of urinary measurements to confirm normal biological levels of tetranor-PGEM, and recovery experiments.
(§3) To determine cross-reactivity of an antibody, set up the standard curve using optimal tracer and Ab dilutions according the kit instructions. Tetranor-PGEM was diluted to 10 ng/ml for the first point in the standard curve and diluted 2.5-fold serially 7 times. First standard dilutions (10 μg/ml) of tetranor-PGDM, tetranor-PGJM, tetranor-PGAM, and tetranor-PGFM were prepared and 7 additional 6-fold serial dilutions were performed. IC50s of all compounds were determined and each percent cross-reactivity (% XR) values of the potentially cross-reactive compounds was determined by dividing the IC50 of tetranor-PGEM by the IC50 of the test compound and multiplying by 100. See the chart below for determined % XR values.

tetranor-PGAM antibody = assay: Cross-reactivity testing of tetranor-PGAM antibody (polyclonal antiserum) by competitive EIA; type: binding, rabbit; conditions: percent cross-reactivity = IC50 of tetranor-PGAM / IC50 of test compound x 100; Example 3, antiserum raised with tetranor-PGAM-KLH immunogen
Description: as §1, with “Immunogen 3” for “Immunogen 1”, “prepared according to” for “prepared in”, “Step A” for “Step A, Procedure 1”, “this Example)” for “this Example; alternatively, Immunogen 1 A, which was prepared in Step A, Procedure 1A of this Example, has been used to produce antiserum according to this immunization method)”
as §2, with “tetranor-PGAM-AChE” for “tetranor-PGEM-AChE”, “(Tracer 4, diluted” for “(diluted”, “tetranor-PGAM,” for “tetranor-PGEM,”, “experiments. Only one AS passed all screens.” for “experiments.”
as §3, with “Tetranor-PGAM” for “Tetranor-PGEM”, “tetranor-PGEM,” for “tetranor-PGJM, tetranor-PGAM,”, “tetranor-PGAM” for “tetranor-PGEM”

Structure (SMILES)	infused dose of PGE2 that appears as tetranor-PGEM in the urine [1]	Cross-reactivity (% XR) [2]	% XR [2]	% XR (tetranor-PGAM antibody)
CCCCC[C@H](O)/C=C/[C@H]1[C@H](O)CC(=O)[C@@H]1C/C=C\CCCC(=O)O [PGE2]	About 15%			
O=C(O)CCCCC(=O)CC[C@H]1C=CC(=O)[C@@H]1CCC(=O)O [tetranor-PGAM]		2,034%	2,034%	100%
O=C(O)CCCCC(=O)CC[C@H]1C(=O)C[C@H](O)[C@@H]1CCC(=O)O [tetranor-PGDM]		1.5%	1.5%	5.3%
O=C(O)CCCCC(=O)CC[C@H]1[C@H](O)CC(=O)[C@@H]1CCC(=O)O [tetranor-PGEM, 11α-hydroxy-9,15-dioxo-13,14-dihydro-2,3,4,5-tetranor-prostan-1,20-dioic acid]		100%	100%	25.1%
O=C(O)CCCCC(=O)CC[C@@H]1[C@@H](CCC(=O)O)[C@@H](O)C[C@H]1O [tetranor-PGFM]		7.8%	7.8%	1.0%
O=C(O)CCCCC(=O)CC[C@H]1C(=O)C=C[C@@H]1CCC(=O)O [tetranor-PGJM]		27.4%	27.4%	
